How the values were obtained:
Clostridium ljungdahlii = assay: Syngas fermentation in stirred tank bioreactor, effect of vitamin feed rates on specific ethanol productivity; type: cell-based; conditions: for effect of increasing feed rate on specific ethanol productivity: Experiment 4, vitamin B5 feed held constant below about 30 ug/g of cells, vitamin B1 and B7 feeds increased
Description: A synthesis gas containing CO. CO2 and H2 was continuously introduced into a stirred tank bioreactor containing Clostridium ljungdahlii (Experiments 1-4), along with a liquid medium containing trace metals and salts as described herein. Vitamins were provided using dedicated feed lines. A New Brunswick Bioflow reactor containing the fermentation medium was started with actively growing Clostridium ljungdahlii (Experiments 1-4). The rate of agitation of the reactor was set to 800 rpm at the start of the experiment and this agitation rate was maintained throughout the experiment. Feed gas flow to the reactor was increased based on the H2 and CO uptake of the culture. Temperature in the bioreactor was maintained at about 38° C. throughout the experiment. Samples of gas feed into the bioreactor and off-gas from the bioreactor and fermentation broth in the bioreactor were taken at intervals, for example feed gas, off-gas and fermentation broth were sampled about daily, once two hours and once four hours respectively. Above samples were analyzed for consumption or production of various gas components, broth acetic acid concentration, broth ethanol concentration and the optical density (cell density) of the culture. The unaroused volume of the reactor was maintained between 3000 to 3250 ml throughout the experiment. Further, the gas flow to the reactor was maintained at required gas flow rates by using a mass flow controller. The feed […] composition was 23% H2, 35% CO, 29% CO2 and 13% N2. In the following reactor runs, vitamins biotin, thiamine and pantothenate were feed to the reactor using a dedicated stream. Steady state conditions were maintained for a period of time greater than 5 times the cell retention time. Cell mass was essentially replaced 5 times before data collection phase started. After data set was collected, vitamin feed rate was adjusted, adjustment phase was repeated, and next data set was collected. Adjustment phase refers to an amount of time necessary for the culture to equilibrate to a change. In this experiment culture was allowed at least a 3-day adjustment phase. A cell recycle system (CRS) was attached to the reactor before the start of the experiment. During the experiment, medium feed rate was 3.0 to 6.0 ml/min, and through the CRS, 0-5 ml/min permeate was drawn out from the reactor. The following tables describe the vitamin feed rates and specific ethanol productivity (SEP).

[1] = system: Clostridium autoethanogenum; assay: Fermentation trials, effect of vitamin feed rates and low cell retention time on specific ethanol productivity; type: cell-based
Description: Fermentation trials were conducted with Clostridium autoethanogenum with Biotin (B7) and Thiamine (B1) feeds held at lower base levels with increasing Pantothenate (B5) Feeds.

Row | Structure (SMILES) | effect of increasing feed rate on specific ethanol productivity (Clostridium ljungdahlii) | SEP (specific ethanol productivity) (Clostridium ljungdahlii; Experiment 3, feeds (μg/g cells produced): pantothenate 19.33, biotin 17.76, thiamine 13.36) [g/day/g cells] | SEP (specific ethanol productivity) (Clostridium ljungdahlii; Experiment 3, feeds (μg/g cells produced): pantothenate 37.91, biotin 17.42, thiamine 13.10) [g/day/g cells] | SEP (specific ethanol productivity) (Clostridium ljungdahlii; Experiment 3, feeds (μg/g cells produced): pantothenate 55.49, biotin 17.00, thiamine 12.79) [g/day/g cells] | SEP (specific ethanol productivity) (Clostridium ljungdahlii; Experiment 3, feeds (μg/g cells produced): pantothenate 72.34, biotin 16.62, thiamine 12.50) [g/day/g cells] | SEP (specific ethanol productivity) (Clostridium ljungdahlii; Experiment 3, feeds (μg/g cells produced): pantothenate 108.13, biotin 19.87, thiamine 14.95) [g/day/g cells] | SEP (specific ethanol productivity) (Clostridium ljungdahlii; Experiment 3, feeds (μg/g cells produced): pantothenate 125.67, biotin 20.55, thiamine 14.76) [g/day/g cells] | specific ethanol productivity increase (Clostridium ljungdahlii; Experiment 3, vitamin B5 feed from about 20 to about 108 ug/g of cells produced, vitamin B1 and B7 feeds under 20 ug/g) | SEP (specific ethanol productivity) ([1]; feeds (μg/g cells produced): pantothenate 48.47, biotin 29.54, thiamine 23.10, cell retention time 13.45 hrs) [g/day/g cells] | SEP (specific ethanol productivity) ([1]; feeds (μg/g cells produced): pantothenate 58.08, biotin 26.65, thiamine 20.84, cell retention time 13.27 hrs) [g/day/g cells] | SEP (specific ethanol productivity) ([1]; feeds (μg/g cells produced): pantothenate 62.90, biotin 23.04, thiamine 18.01, cell retention time 12.44 hrs) [g/day/g cells] | SEP (specific ethanol productivity) ([1]; feeds (μg/g cells produced): pantothenate 68.78, biotin 25.19, thiamine 19.70, cell retention time 11.36 hrs) [g/day/g cells] | SEP (specific ethanol productivity) ([1]; feeds (μg/g cells produced): pantothenate 70.67, biotin 21.62, thiamine 16.91, cell retention time 11.22 hrs) [g/day/g cells] | SEP (specific ethanol productivity) ([1]; feeds (μg/g cells produced): pantothenate 81.90, biotin 18.79, thiamine 14.69, cell retention time 9.81 hrs) [g/day/g cells] | specific ethanol productivity increase ([1]; vitamin B5 feed from about 48 to about 82 ug/g of cells produced, B1 and B7 under 30 then under 20 ug/g, cell retention time from about 13.5 to 9.8 hours)
1 | O=C(O)CCCC[C@@H]1SC[C@@H]2NC(=O)N[C@@H]21 [Biotin, biotin] | did not increase specific ethanol productivity | – | – | – | – | – | – | – | – | – | – | – | – | – | –
2 | CC(C)(CO)[C@@H](O)C(=O)NCCC(=O)O [Pantothenate, pantothenate] | – | 7.95 | 8.64 | 10.03 | 10.33 | 11.25 | 11.15 | about 42% | 8.08 | 8.24 | 8.51 | 9.39 | 9.70 | 9.98 | about 24%
3 | Cc1ncc(C[n+]2csc(CCO)c2C)c(N)n1 [Thiamine, thiamine] | did not increase specific ethanol productivity | – | – | – | – | – | – | – | – | – | – | – | – | – | –
